The record followed here is US10189837B2, “Crystalline (8S,9R)-5-fluoro-8-(4-fluorophenyl)-9-(1-methyl-1H-1,2,4-triazol-5-yl)-8,9-dihydro-2H-pyrido[4,3,2-de]phthalazin-3(7H)-one tosylate salt” (Medivation Technologies, LLC, priority 2010, dated 2019).

What all share (assay type): cell-based
For assay [1], the system named is Basaloid squamous cell line PE/CA-PJ34 (clone 12). Briefly: Single-agent cytotoxicity assay in head & neck tumor cell lines. How it is done: (§1) Oral squamaous carcinoma HSC-3 and HSC-4 cells were cultured in MEM+10% FBS. Oral squamaous carcinoma CAL 27 was cultured in DMEM+10% FBS. Basaloid squamous cell line PE/CA-PJ34 (clone 12) was cultured in IMDM+10% FBS. All cell lines were maintained in their corresponding growth media containing 100 U/mL Penicillin and 100 μg/mL Streptomycin in 37° C. incubator with 5% CO2 till ready for assay. According to individual cell line growth rate, cells were seeded at different densities as indicated in each graph in 96-well plates in the time of assay. Cells were incubated for overnight at 37° C. before treated with their corresponding growth media containing free base in 0.1% DMSO at various concentrations ranging from 5000 nM to 0.064 nM. 0.1% DMSO was used as mock treatment or control. Media and compound were replenished every 5 days. After incubation for 7, 10, 11 or 13 days (as indicated in each graph), cell survival was measured by CellTiter Glo (Promega) and cell survival fraction was calculated relative to control. GraphPad Prism5 software was used to plot data and calculate IC50 values.

For assay [2], the system named is Oral squamaous carcinoma CAL 27. The description is as above. The following applies: Homo sapiens. As to the method: as §1
Assay [3] deals with Oral squamaous carcinoma HSC-4 cells. The assay is described as above. The following applies: Homo sapiens. How it is done:
as §1

Assay [4] relates to Oral squamaous carcinoma HSC-3 cells. Described as above. The following applies: Homo sapiens. As to the method: as §1
The subject of assay [5] is Mantle cell lymphoma cell line Jeko-1. Put plainly: Single-agent cytotoxicity assay, CellTiter Glo cell survival. As to conditions: Homo sapiens, JeKo-1, 96 h, 4-day assay. As to the method:
(§2) Mantle cell lymphoma cell line Granta-519 was cultured in Dulbecco's MEM (4.5 g/L glucose) containing 10% FBS, 2 mM L-glutamine, 100 U/mL Penicillin and 100 μg/mL Streptomycin. Mantle cell lymphoma cell line Jeko-1 was cultured in RPMI1640 containing 10% FBS, 100 U/mL Penicillin and 100 μg/mL Streptomycin. Mantle cell lymphoma cell line Z138 was cultured in IMDM containing 10% horse serum, 100 U/mL Penicillin and 100 μg/mL Streptomycin. All cell lines were maintained in 37° C. incubator with 5% CO2 till ready for assay. Granta-519, Jeko-1 and Z138 cells were seeded at either 1000 or 5000 cells/well in 96-well plates. Cells were incubated for overnight at 37° C. before treated with their corresponding growth media containing free base in 0.1% DMSO at various concentrations ranging from 1000 nM to 0.32 nM. 0.1% DMSO was used as mock treatment or control. After 4 days incubation, cell survival was measured by CellTiter Glo (Promega) and cell survival fraction was calculated relative to control. GraphPad Prism5 software was used to plot data and calculate IC50 values.

In assay [6] the test system is Mantle cell lymphoma cell line Z138. The description is as above. The following applies: Homo sapiens, Z-138, 96 h, 4-day assay. As to the method: as §2
Assay [7] relates to Mantle cell lymphoma cell line Granta-519. Described as above. The following applies: Homo sapiens, Granta-519, 96 h, 4-day assay. As to the method: as §2

SMILES strings stand for the structures.

By IC50 is commonly meant the concentration at which inhibition is half-maximal. A low value points to greater potency in that assay. Consider `Cn1ncnc1[C@H]1c2n[nH]c(=O)c3cc(F)cc(c23)N[C@@H]1c1ccc(F)cc1` [free base, (8S,9R)-5-fluoro-8-(4-fluorophenyl)-9-(1-methyl-1H-1,2,4-triazol-5-yl)-8,9-dihydro-2H-pyrido[4,3,2-de]phthalazin-3(7H)-one], for which the IC50 in assay [1] (240 h, PE/CA-PJ34 C12, 10 days, 2000/well) was determined as 13.6 nM; in assay [1] (312 h, PE/CA-PJ34 C12, 13 days, 1000/well), 18.1 nM; in assay [2] (CAL-27, 168 h, CAL27, 7 days, 800/well), 23 nM; in assay [2] (CAL-27, 264 h, CAL27, 11 days, 400/well) it was 15.3 nM; in assay [3] (168 h, HSC-4, 7 days, 100/well), 58 nM; in assay [3] (264 h, HSC-4, 11 days, 200/well), 48.8 nM. The IC50 was found to be 972 nM in assay [4] (168 h, HSC-3, 7 days, 1500/well); 931 nM in assay [4] (264 h, HSC-3, 11 days, 750/well); 64.2 nM in assay [5] (Jeko-1, 1000/well); 357 nM in assay [5] (Jeko-1, 5000/well); 10.4 nM in assay [6] (Z-138, 1000/well); 59.4 nM in assay [6] (Z-138, 5000/well). In addition, the IC50 in assay [7] (Granta-519, 1000/well) was found to be 1.7 nM; in assay [7] (Granta-519, 5000/well), 8.83 nM.
